In patent EP0170121A1, “2-Hydroxy-3-aryloxypropyl or 2-hydroxy-2-benzofuranyl ethyl tertiary amine having an anti-hyperglycaemic and/or anti-obesity activity” (BEECHAM GROUP PLC, priority 1984, dated 1986):
Where a name gives a salt, the structure may show the parent alone. Marks after values point to notes of the source that are not given here.

What was measured:
Assay type in all cases: in vivo
Female CD1 mice = assay: Effect on energy expenditure of mice (oxygen consumption, oral dosing); conditions: p.o. in water, percentage of the rate of energy expenditure of the mice dosed with water, dose differs per compound (Dose mg/kg p.o.); for Mean Energy Expenditure (0-3h): 0-3h after dosing; for Mean Energy Expenditure (0-21h): 0-21h after dosing
Procedure: Female CD1 mice each weighing approximately 24 g were given food and water ad lib before and during the experiment. The compounds were dissolved in water and these solutions were administered orally to each of 12 mice. A further 12 mice were dosed orally with water. The mice were placed in groups of threes in boxes through which air was drawn and the oxygen content of the air leaving the boxes was measured. The energy expenditure of the mice was calculated for 3 and 21 hours after dosing from the volume of air leaving the boxes and its oxygen content, following the principles described by J.B. de V. Weir, J. Physiol. (London) 109, 1-9 (1949). The results are expressed as a percentage of the rate of energy expenditure of the mice dosed with water.

Female CFLP mice = assay: Hypoglycaemic activity: subcutaneous glucose load, area under blood glucose curve; conditions: female CFLP mice fasted 24 hours; compound orally 30 minutes before glucose 1 g/kg s.c.; 2 hour period; versus control mice given water; dose differs per compound (Dose µmol/kg)
Procedure: Female CFLP mice, weighing approximately 25 g, were fasted for 24 hours prior to the study. The compounds under study were administered orally as an aqueous solution to each of 6 mice. 30 minutes later a blood sample (20 µl) was obtained from the tail for the analysis of blood glucose. Immediately after taking this blood sample, glucose (1 g/kg body weight) was administered subcutaneously to each mouse. 6 mice were given water as a control. Blood samples were then obtained from each mouse at 30 minute intervals for 120 minutes.
Compounds that produced a significant (p<0.05) reduction of blood glucose, compared with control mice given water, at any time interval, were considered active. The area under the blood glucose curve over the 2 hour period after the administration of the glucose was calculated for each compound and compared with the value for control animals.

Male Sprague-Dawley rats = assay: Effect on energy expenditure of rats (oxygen consumption, oral dosing); conditions: deprived of food, p.o. in water, percentage of the rate of energy expenditure of the rats dosed with water, dose differs per compound (Dose mg/kg p.o.); for Mean Energy Expenditure (0-3h): 0-3h after dosing; for Mean Energy Expenditure (0-21h): 0-21h after dosing
Procedure: Male Sprague-Dawley rats each weighing between 170-200 g were deprived of food for 16 hours before, and during the experiment. Water was provided ad lib at all times. The compounds were administered orally in water to 3 or 4 rats. A further 4 rats were dosed orally with water. The rats were placed in boxes through which air was drawn and the oxygen content of the air leaving the boxes was measured. The energy expenditure of the rats was calculated for 3 hours and for 21 hours after dosing from the volume of air leaving the boxes and its oxygen content, following the principles described by J.B. de V. Weir, J. Physiol. (London) 109, 1-9 (1949). The results are expressed as a percentage of the rate of energy expenditure of the rats dosed with water.

Structure (SMILES)	Mean Energy Expenditure (0-3h) (Female CD1 mice) [percentage]	Mean Energy Expenditure (0-21h) (Female CD1 mice) [percentage]	% Reduction in Area under Blood Glucose Curve (Female CFLP mice) [%]	Mean Energy Expenditure (0-3h) (Male Sprague-Dawley rats) [percentage]	Mean Energy Expenditure (0-21h) (Male Sprague-Dawley rats)
CNC(=O)c1ccc(C[C@@H](C)N(C[C@@H](O)COc2ccccc2)C[C@H](O)c2ccccc2)cc1 [Example 7, N-Methyl 4-[(R)-2-[N'-[(R)-2-hydroxy-2-phenethyl]-N'-[(R)-2-hydroxy-3-phenoxypropyl]amino]propyl]benzamide]	119	102	18		
CCOC(=O)COc1ccc(CC[C@@H](C)N(C[C@H](O)COc2ccccc2)C[C@H](O)c2ccccc2)cc1 [Example 21, Ethyl 4-[(R)-3-[N-[(R)-2-hydroxy-2-phenethyl]-N-[(S)-2-hydroxy-3-phenoxypropyl]amino]butyl]phenoxyacetate, hydrochloride]				110	107 percentage
C[C@H](COc1ccc(OCC(N)=O)cc1)N(C[C@H](O)COc1ccccc1)C[C@H](O)c1ccccc1 [Example 25, 4-[(R)-2-[N-[(R)-2-Hydroxy-2-phenethyl]-N-[(S)-2-hydroxy-3-phenoxypropyl]amino]propoxy]phenoxyacetamide, hydrochloride]				126	115 percentage
COC(=O)c1ccc(C[C@@H](C)N(CC(O)c2cc(Cl)c(N)c(Cl)c2)C[C@H](O)COc2ccccc2)cc1 (stereo partly drawn) [Example 10, Methyl 4-[(R)-2-[N-[2-(4-amino-3,5-dichlorophenyl]-2-hydroxyethyl]-N-[(S)-2-hydroxy-3-phenoxypropyl]amino]propyl benzoate]	121	122	31		
Br.C[C@H](CCc1ccc(C(N)=O)cc1)N(C[C@H](O)COc1ccccc1)C[C@H](O)COc1ccccc1.O.O [Example 13, 4-[(R)-3-[Bis-[(S)-2-hydroxy-3-phenoxypropyl]amino]butyl]-benzamide, hydrobromide, dihydrate]	103	105	15	108	106 percentage
C[C@H](Cc1ccc(OCCO)cc1)N(C[C@H](O)COc1ccccc1)C[C@H](O)c1ccccc1 [Example 22, 4-[(R)-2-[N-[(R)-2-Hydroxy-2-phenethyl]-N-[(S)-2-hydroxy 3-phenoxypropyl]amino]propyl]phenoxyethanol, hydrochloride, hemihydrate]				120	107 percentage
CC(Cc1ccc(OCC(N)=O)cc1)N(CC(O)COc1ccccc1)CC(O)c1cc(Cl)c(N)c(Cl)c1 (stereo not shown) [Example 30, 4-[2-[N-[2-(4-Amino-3,5-dichlorophenyl)-2-hydroxyethyl]-N-[2-hydroxy-3-phenoxypropyl]amino]propyl]phenoxyacetamide]				129	116* percentage
CCOC(=O)COc1ccc(C[C@@H](C)N(CC(O)c2cc3ccccc3o2)C[C@H](O)c2ccccc2)cc1 (stereo partly drawn) [Example 27, Ethyl 4-[(R)-2-[N-[(R)-2-hydroxy-2-phenethyl]-N-[2-(2-benzofuranyl)-2-hydroxyethyl]amino]propyl]phenoxyacetate hydrochloride]				134	114 percentage
COC(=O)COc1ccc(C[C@@H](C)N(C[C@H](O)COc2ccccc2)C[C@H](O)c2ccccc2)cc1 [Example 24, Methyl 4-[(R)-2-(N-[(R)-2-hydroxy-2-phenethyl]-N-[(S)-2-hydroxy-3-phenoxypropyl]amino]propyl]phenoxyacetate, hydrochloride, hemihydrate]				146	122 percentage
C[C@H](CCc1ccc(C(N)=O)cc1)N(C[C@H](O)COc1ccccc1)C[C@H](O)c1ccccc1 [Example 12, 4-[(R)-3-[N-(R)-2-Hydroxy-2-phenethyl-N-[(S)-2-hydroxy-3-phenoxypropyl]amino]butyl]benzamide]	111	103	28	139	113 percentage
COC(=O)COc1ccc(CC(C)N(CC(O)COc2ccccc2)CC(O)c2cc(Cl)c(N)c(Cl)c2)cc1 (stereo not shown) [Example 29, Methyl 4-[2-[N-[2-(4-amino-3,5-dichlorophenyl)-2-bydroxy-ethyl]-N-[2-hydroxy-3-phenoxypropyl]amino]propyl]phenoxyacetate, hemifumarate]				131	122* percentage
C[C@H](Cc1ccc(OCC(N)=O)cc1)N(C[C@H](O)COc1ccccc1)C[C@H](O)c1cccc(Cl)c1 [Example 19, 4-[(R)-2-[N-[(R)-2-(3-Chlorophenyl)-2-hydroxyethyl]-N-[(S)-2-hydroxy-3-phenoxypropyl]amino]propyl]phenoxyacetamide, hydrochloride, hemihydrate]			43	120	106 percentage
COC(=O)c1ccc(C[C@@H](C)N(C[C@@H](O)COc2ccccc2)C[C@@H](O)COc2ccccc2)cc1 [Example 2, Methyl 4-[(R)-2-[bis-[(R)-2-hdroxy-3-penoxypropyl]amino]propyl]benzoate, fumarate]	122	97		114	100 percentage
CCOC(=O)COc1ccc(C[C@@H](C)N(CC(O)c2cc3ccccc3o2)C[C@H](O)COc2ccccc2)cc1.Cl (stereo partly drawn) [Example 26, Ethyl 4-[(R)-2-[N-[2-(2-benzofuranyl)-2-hydroxyethyl]-N-[(S)-2-hydroxy-3-phenoxypropyl]amino]propyl]phenoxyacetate, hydrochloride]			34	142	117 percentage
COC(=O)c1ccc(C[C@@H](C)N(C[C@@H](O)COc2ccccc2)C[C@H](O)c2ccccc2)cc1 [Example 5, Methyl 4-[(R)-2-[N-[(R)-2-hydroxy-2-phenethyl]-N-[(R)-2-hydroxy-3-phenoxypropyl]amino]propyl]benzoate hydrochloride]	136	112	38		
CNC(=O)c1ccc(C[C@@H](C)N(C[C@H](O)COc2ccccc2)C[C@H](O)COc2ccccc2)cc1 [Example 3, N-Methyl 4-[(R)-2-[bis-[(S)-2-hydrpxy-3-phenoxypropyl]amino]propyl]benzamide, fumarate]	133	109	12	114	100 percentage
C[C@H](Cc1ccc(OCC(N)=O)cc1)N(C[C@@H](O)COc1ccccc1)C[C@H](O)c1ccc(O)cc1 [Example 28, 4-[(R)-2-[N-[(R)-2-Hydroxy-2-(4-hydroxyphenyl)ethyl]-N-[(R)-2-hydroxy-3-phenoxypropyl]amino]propyl]phenoxyacetamide]				131	117* percentage
CNC(=O)c1ccc(C[C@@H](C)N(C[C@H](O)COc2ccccc2)C[C@H](O)c2ccccc2)cc1 [Example 6, N-Methyl 4-[(R)-2-[N'-[(R)-2-hydroxy-2-phenethyl]-N'-[(S)-2-hydroxy-3-phenoxypropyl]amino]propyl]benzamide]	126	110	13	112	108 percentage
